Laboratory results taken from patent publication US20220389013A1, “PYRIDOPYRIMIDINONE COMPOUNDS AND APPLICATIONS THEREOF” (BeBetter Med Inc., priority 2020, published 2022).

Experiments:
[1] = molecular target: T1, KRAS-G12C/SOS1 (Homo sapiens, UniProt P01116, G12C); test: HTRF KRAS-G12C/SOS1 binding assay; conditions: 2 hours room temperature
T1 construct: purchased Cisbio #63ADK000CB16PEG
Method: 2) Diluted the compound to be tested with diluent into 10× stock solution, starting from a concentration of 10000 nM, diluting in 4-fold gradient and a total of 6 concentration gradients.
After incubated at room temperature for 15 minutes, added pre-mixed 5 uL of anti-Tag1-Tb^3+ and 5 uL of anti-Tag2-XL665. Sealed the plate and incubated at room temperature for 2 hours.
Data were processed by using Graphpad prism software.

[2] = Pharmacokinetic (PK) experiment in rats by gavage; format: in vivo; conditions: rat, plasma, po, male SD rats, 20 mg/kg; for AUC(0-t): read-out: AUC0-24
Method: Male SD rats, weighing 180-250 g, were fasted overnight before the test and stomach administrated with the test compound at 20 mg/kg. 15 minutes, 30 minutes, and 1, 2, 4, 6, 8, and 24 hours after administration, blood was taken from the end of the tail of the fracture, about 0.3 mL per time point, then placed in a centrifuge tube containing K2-EDTA, and centrifuged (2000 g, 10 min, at 4° C.). Plasma was collected and stored in an ultra-low temperature freezer at −80° C. 50 μL of plasma samples were vortexed with 135 μL of acetonitrile (containing 1 μg/mL internal standard) for protein precipitation and centrifuged, and the supernatant was collected for LC-MS/MS analysis.
After the rats oral administrated with the Pyridopyrimidinone compounds provided by the present disclosure, the absorption is good, and the blood exposure is relatively high. […] Cmax refers to the maximum plasma concentration, T1/2 is the half-life, AUC0-24 refers to the area under the 0-24 hour time-concentration curve, and AUC0-inf refers to the area under the 0-Inf time-concentration curve.

[3] = test system: H23 (KRAS G12C); test: Tumor cell proliferation inhibition assay (CellTiter-Glo), H23; format: cell-based, Human; conditions: 10% fetal bovine serum
Method: The H358, H23 or MIA-Paca2 cells were digested, centrifuged and resuspended, and the cell density was measured with a Scepter automatic cell counter. Cells were diluted to a solution containing 44,000 cells per milliliter, then added to a 96-well culture plate at 90 μL per well. The 96-well plate was placed in a 5% CO2 incubator at 37° C., and after the cells were cultured for 24 hours, different concentrations of the compounds to be tested were added. Cells were incubated with compounds in the presence of 10% fetal bovine serum for 72 hours. The inhibition of cell growth was assessed by measuring ATP levels by using the CellTiter-Glo Luminescent Cell Viability Assay Kit (details in manufacturer's instructions). In brief, 30 μL of CellTiter-Glo reagent was added to each well and the plate was shaken for 10 minutes to induce cell lysis, then the fluorescent signal was detected and recorded with a Fluoroskan Ascent FL (Thermo). Maximum signal values were obtained from cells treated with DMSO for 72 hours. Minimum signal values were obtained with medium only (zero cell number). Inhibition rate %=(maximum signal value-compound signal value)/(maximum signal value-minimum signal value)×100%. Data were processed by using Graphpad prism5 software. IC50 values were calculated using a sigmoidal dose-response curve.

[4] = test system: MIA-Paca2 (KRAS G12C); test: Tumor cell proliferation inhibition assay (CellTiter-Glo), MIA-Paca2; format: cell-based, Human; conditions: 10% fetal bovine serum
Outline: (§1)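 Growth was read as ATP by CellTiter-Glo luminescence, with inhibition normalised to DMSO (max) and medium-only (min) wells. IC50 came from sigmoidal dose-response fits.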

[5] = test system: H358 (KRAS G12C); test: Tumor cell proliferation inhibition assay (CellTiter-Glo), H358; format: cell-based, Human; conditions: 10% fetal bovine serum
Outline: as §1

[6] = Caco-2 cell transmembrane transport experiment; conditions: human; for Papp B→A at 90 min, 10 μM: basolateral to apical
Excerpt: In this experiment, a monolayer of Caco-2 cells was used to assess drug penetration. […] The apparent permeability coefficient from apical to basolateral (Papp A-B) and the basolateral to apical permeability coefficient (Papp B-A) of compounds represent the ability of the compound to be transported in both directions, respectively.
Apparent permeability coefficient (Papp)=(the volume of the receiver chamber/the filter surface area×culture time))×(the drug concentration of receiver chamber at the end of culture/(the drug concentration of donor chamber at the initial culture×dilution factor)
In this experiment, Millipore cell culture plates (PSHT 010 R5): membrane area=0.7 cm^2, recipient side volume=0.8 mL (A-to-B) or 0.4 mL (B-to-A), incubation time=90 minutes.

T1 sequence (P01116 1-188 isoform P01116-2 G12C): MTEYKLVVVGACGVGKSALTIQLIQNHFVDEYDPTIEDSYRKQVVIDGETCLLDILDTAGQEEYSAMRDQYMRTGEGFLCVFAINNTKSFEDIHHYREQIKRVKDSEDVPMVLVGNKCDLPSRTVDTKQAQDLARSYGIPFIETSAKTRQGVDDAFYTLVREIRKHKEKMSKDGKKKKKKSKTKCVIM

SMILES | IC50 [1] [nM] | melting point [°C] | AUC(0-inf) [2] [ng·h/mL] | Cmax [2] [ng/mL] | Tmax [2] [h] | half-life [2] [h] | AUC(0-t) [2] [ng·h/mL] | IC50 ([3]; Homo sapiens, 72 h) [nM] | IC50 ([4]; 72 hours) [nM] | IC50 ([5]; 72 hours) [nM] | IC50 ([4]; Homo sapiens, MIA PaCa-2, 72 h) [nM] | IC50 ([5]; Homo sapiens, NCI-H358, 72 h) [nM] | IC50 ([3]; 72 hours) [nM] | other results
C=CC(=O)N1C[C@H](C)N(c2nc(=O)n(-c3c(C)ccnc3C(C)C)c3nc(-c4c(F)ccc5ccoc45)c(Cl)cc23)C[C@H]1C [Compound 90, 4-((2S,5R)-4-acryloyl-2,5-dimethylpiperazin-1-yl)-6-chloro-7-(6-fluorobenzofuran-7-yl)-1-(2-isopropyl-4-methylpyridin-3-yl)pyrido[2,3-d]pyrimidin-2(1H)-one] | 50 to 100 | 167 to 169 | 20400 | 5610 | 1 | 5.54 | 20100 | < 10 | 10 to 50 | < 10 |  |  |  | 
C=CC(=O)N1C[C@H](C)N(c2nc(=O)n(-c3c(C)ccnc3C(C)C)c3nc(-c4c(F)c(F)cc5ccoc45)c(F)cc23)C[C@H]1C (single isomer, unassigned) [Compound 91-1] | 100 to 500 | 156 to 158 | 9710 | 2970 | 1.17 | 2.72 | 9680 | < 10 |  |  | 10 to 50 | 10 to 50 |  | 
C=CC(=O)N1CCN(c2nc(=O)n(-c3c(C)ccnc3C(C)C)c3nc(-c4c(F)c(F)cc5ccoc45)c(F)cc23)[C@@H](C)C1 (single isomer, unassigned) [Compound 74-1] | 50 to 100 |  | 6220 | 3180 | 0.83 | 5.3 | 6200 | < 10 |  |  | 10 to 50 | 10 to 50 |  | 
C=CC(=O)N1CCN(c2nc(=O)n(-c3c(C)ccnc3C(C)C)c3nc(-c4c(F)ccc5ccoc45)c(Cl)cc23)[C@@H](C)C1 (single isomer, unassigned) [Compound 73-2] | 100 to 500 |  |  |  |  |  |  |  | 100 to 500 | 10 to 50 |  |  | < 10 | 
C=CC(=O)N1CCN(c2nc(=O)n(-c3c(C)ccnc3C(C)C)c3nc(-c4c(F)c(F)cc5ccoc45)c(Cl)cc23)[C@@H](C)C1 (single isomer, unassigned) [Compound 103-1] | < 50 |  | 6240 | 2700 | 1 | 6.03 | 6190 | < 10 |  |  | < 10 | < 10 |  | efflux ratio at 90 min, 10 μM ([6]; Caco-2, pH 7.4): 2.08; Papp A→B at 90 min, 10 μM ([6]; Caco-2, pH 7.4, Papp A-B Sample_01, 10 μM, pH 7.4, 37° C., 90 min, apical to basolateral): 12.1 ×10⁻⁶ cm/s; Papp A→B at 90 min, 10 μM ([6]; Caco-2, pH 7.4, Papp A-B Sample_02, 10 μM, pH 7.4, 37° C., 90 min, apical to basolateral): 10.7 ×10⁻⁶ cm/s; Papp A→B at 90 min, 10 μM ([6]; Caco-2, pH 7.4, Papp A-B mean value, 10 μM, pH 7.4, 37° C., 90 min, apical to basolateral): 11.4 ×10⁻⁶ cm/s; Papp B→A at 90 min, 10 μM ([6]; Caco-2, pH 7.4, Papp B-A Sample_01, 10 μM, pH 7.4, 37° C., 90 min): 19.7 ×10⁻⁶ cm/s; Papp B→A at 90 min, 10 μM ([6]; Caco-2, pH 7.4, Papp B-A Sample_02, 10 μM, pH 7.4, 37° C., 90 min): 27.8 ×10⁻⁶ cm/s; Papp B→A at 90 min, 10 μM ([6]; Caco-2, pH 7.4, Papp B-A mean value, 10 μM, pH 7.4, 37° C., 90 min): 23.7 ×10⁻⁶ cm/s; Papp A→B at 90 min, 10 μM ([6]; Caco-2, pH 7.4, apparent permeability coefficient Papp A-B, Caco-2): > 10 ×10⁻⁶ cm/s
C=CC(=O)N1CCN(c2nc(=O)n(-c3c(C)ccnc3C(C)C)c3nc(-c4c(F)ccc5ccoc45)c(F)cc23)[C@@H](C)C1 (single isomer, unassigned) [Compound 70-2] | > 1000 |  |  |  |  |  |  |  | > 500 | 100 to 500 |  |  | 50 to 100 | 
